In patent US12012408B2, “Purine compounds and method for the treatment of cancer” (THE ROYAL INSTITUTION FOR THE ADVANCEMENT OF …, priority 2018, dated 2024):

Columns and labels:
In vivo tolerability = assay: In vivo tolerability; set-up: species or system mice; settings: administered intraperitoneally
Description: Breast cancer stem-like cells (BCSCs), heterogeneously subsisting as CD24low/CD44high and ALDHhigh subpopulations, are enriched in aggressive breast cancer subtypes and believed to be responsible for driving metastatic colonization. Despite evidence of a clinical association between BCSC and poor prognosis, effective therapeutic means to target this cell population is lacking. We identified SLLN-15 as a compound with selective anti-sternness activity across a panel of cell lines expressing ALDHhigh and CD24low/CD44high markers, including MDA-MB-231, SUM-149PT, BT-20, SKBR3, 4T1 and several anaplastic thyroid cell lines. […] In summary, our data foster that targeting regulatory networks driving sternness represent important therapeutic targets for treating metastatic breast disease.

[1] = tested on: MDA-MB-231 and BT-20 cells; assay: Propidium iodide staining and flow cytometry of DNA content; format: cell-based; settings: treatment for 24 hours; FIG. 6C
Description: Cells were seeded into six-well plates and treated with the indicated concentration of SLLN-15 for 24 hours. After harvesting, cells were fixed in 80% methanol at −20° C. overnight. The fixed cells were washed twice with cold phosphate-buffered saline (PBS), incubated for 1 hour with 0.1% Triton X-100 and 0.5 μg/ml RNase A, and then stained with propidium iodide (PI) (Sigma) at a final concentration of 10 μg/ml in the dark at 4° C. until analysis. The fluorescent signal was detected through the FL-2 channel using FACSCalibur flow cytometry (Becton Dickson), and the proportion of DNA in various phases was analyzed using FCS Express version 3.0 (De novo Software, Glendale, California, USA)

c1nc2nc(Nc3ccc(N4CC[Se]CC4)cc3)nc(N[C@H]3CC[Se]C3)c2[nH]1 [SLLN-15]
tolerability (In vivo tolerability): well-tolerated
apoptosis (sub-G1 phase) [1]: no obvious apoptosis
cells arrested in G2/M phase and polyploidy (>4N) [1]: significantly higher percentage
